Data from patent publication US5292733A, “Cephalosporin compounds” (Lucky Limited, priority 1991, dated 1994).
Values after ≈ are worked out from the molar mass of the structure shown.

Assays:
Assay in all cases: Antibacterial activity MIC, two-fold agar dilution
Format in all cases: cell-based
[1] = tested on: Staphylococcus aureus ATCC 6538p; settings: ATCC6538P; Staphylococcus aureus ATCC 6538p; Muller-Hinton agar, 37° C., 20 hours; read-out: Antibacterial Activity MIC
Summary of the method: (§1)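 Read-out is the MIC on agar plates after 20 hours at 37° C. Test compounds were dispersed as two-fold serial dilutions in Muller-Hinton medium, then inoculated with 2 μl of standard strain containing 10^7 CFU per ml.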

[2] = tested on: Salmonella typhimurium ATCC 14028; settings: Salmonella enterica; Salmonella typhimurium ATCC 14028; Muller-Hinton agar, 37° C., 20 hours; read-out: Antibacterial Activity MIC
Summary of the method: as §1

[3] = tested on: Enterobacter cloacae ATCC 27508; settings: ATCC27508; Enterobacter cloacae ATCC 27508; Muller-Hinton agar, 37° C., 20 hours; read-out: Antibacterial Activity MIC
Summary of the method: as §1

[4] = tested on: Proteus mirabilis ATCC 25933; settings: ATCC25933; Proteus mirabilis ATCC 25933; Muller-Hinton agar, 37° C., 20 hours; read-out: Antibacterial Activity MIC
Summary of the method: as §1

[5] = tested on: Pseudomonas aeruginosa ATCC 27853; settings: ATCC27853; Pseudomonas aeruginosa ATCC 27853; Muller-Hinton agar, 37° C., 20 hours; read-out: Antibacterial Activity MIC
Summary of the method: as §1

[6] = tested on: Pseudomonas aeruginosa ATCC 10145; settings: ATCC10145; Pseudomonas aeruginosa ATCC 10145; Muller-Hinton agar, 37° C., 20 hours; read-out: Antibacterial Activity MIC
Summary of the method: as §1

[7] = tested on: Micrococcus luteus ATCC 9341; settings: ATCC9341; Micrococcus luteus ATCC 9341; Muller-Hinton agar, 37° C., 20 hours; read-out: Antibacterial Activity MIC
Summary of the method: as §1

[8] = tested on: Pseudomonas aeruginosa ATCC 25619; settings: ATCC25619; Pseudomonas aeruginosa ATCC 25619; Muller-Hinton agar, 37° C., 20 hours; read-out: Antibacterial Activity MIC
Summary of the method: as §1

[9] = tested on: Streptococcus faecalis ATCC 29212; settings: Enterococcus faecalis, ATCC29212; Streptococcus faecalis ATCC 29212; Muller-Hinton agar, 37° C., 20 hours; read-out: Antibacterial Activity MIC
Summary of the method: as §1

[10] = tested on: Escherichia coli ATCC 10536; settings: ATCC10536, Muller-Hinton agar, 37° C., 20 hours
Summary of the method: as §1

[11] = tested on: Escherichia coli ATCC 25922; settings: ATCC25922, Muller-Hinton agar, 37° C., 20 hours
Summary of the method: as §1

[12] = tested on: Acinetobacter calcoaceticus ATCC 15473; settings: ATCC15473; Acinetobacter calcoaceticus ATCC 15473; Muller-Hinton agar, 37° C., 20 hours; read-out: Antibacterial Activity MIC
Summary of the method: as §1

[13] = tested on: Staphylococcus aureus ATCC 10537; settings: ATCC10537; Staphylococcus aureus ATCC 10537; Muller-Hinton agar, 37° C., 20 hours; read-out: Antibacterial Activity MIC
Summary of the method: as §1

[14] = tested on: Citrobacter freundii ATCC 8090; settings: ATCC8090; Citrobacter freundii ATCC 8090; Muller-Hinton agar, 37° C., 20 hours; read-out: Antibacterial Activity MIC
Summary of the method: as §1

[15] = tested on: Proteus vulgaris ATCC 6059; settings: ATCC6059; Proteus vulgaris ATCC 6059; Muller-Hinton agar, 37° C., 20 hours; read-out: Antibacterial Activity MIC
Summary of the method: as §1

[16] = tested on: Serratia marcescens ATCC 27117; settings: ATCC27117; Serratia marcescens ATCC 27117; Muller-Hinton agar, 37° C., 20 hours; read-out: Antibacterial Activity MIC
Summary of the method: as §1

[17] = tested on: Shigella flexneri ATCC 11836; settings: ATCC11836, Muller-Hinton agar, 37° C., 20 hours
Summary of the method: as §1

[18] = tested on: Staphylococcus epidermidis ATCC 12228; settings: ATCC12228; Staphylococcus epidermidis ATCC 12228; Muller-Hinton agar, 37° C., 20 hours; read-out: Antibacterial Activity MIC
Summary of the method: as §1

[19] = tested on: Enterobacter aerogenes ATCC 29751; settings: Klebsiella aerogenes, ATCC29751; Enterobacter aerogenes ATCC 29751; Muller-Hinton agar, 37° C., 20 hours; read-out: Antibacterial Activity MIC
Summary of the method: as §1

[20] = tested on: Providencia rettgeri ATCC 9250; settings: ATCC9250, Muller-Hinton agar, 37° C., 20 hours
Summary of the method: as §1

[21] = tested on: Bacillus megaterium ATCC 9885; settings: Priestia megaterium, ATCC9885; Bacillus megaterium ATCC 9885; Muller-Hinton agar, 37° C., 20 hours; read-out: Antibacterial Activity MIC
Summary of the method: as §1

[22] = tested on: Shigella sonnei ATCC 11060; settings: ATCC11060, Muller-Hinton agar, 37° C., 20 hours
Summary of the method: as §1

[23] = tested on: Bacillus cereus ATCC 11778; settings: ATCC11778; Bacillus cereus ATCC 11778; Muller-Hinton agar, 37° C., 20 hours; read-out: Antibacterial Activity MIC
Summary of the method: as §1

[24] = tested on: Klebsiella pneumoniae ATCC 10031; settings: ATCC10031; Klebsiella pneumoniae ATCC 10031; Muller-Hinton agar, 37° C., 20 hours; read-out: Antibacterial Activity MIC
Summary of the method: as §1

[25] = tested on: Morganella morganii ATCC 8076h; settings: ATCC8076H, Muller-Hinton agar, 37° C., 20 hours
Summary of the method: as §1

## CC[n+]1c(N)cc(SCC2=C(C(=O)[O-])N3C(=O)[C@@H](NC(=O)/C(=N\OC(C)(C)C(=O)O)c4csc(N)n4)[C@H]3SC2)nc1N [Compound I-13, (6R,7R)-7-[(Z)-2-(2-aminothiazol-4-yl)-2-(carboxyprop-2-oxyimino)acetamido]-3-(2,6-diamino-1-ethylpyrimidinium-4-yl)thiomethyl-3-cephem-4-carboxylate]
[1]
  MIC: 8 µg/mL (≈ 12.5 µM)
[2]
  MIC: 0.25 µg/mL (≈ 0.392 µM)
[3]
  MIC: 0.031 µg/mL (≈ 0.0486 µM)
[4]
  MIC: 0.13 µg/mL (≈ 0.204 µM)
[5]
  MIC: 1 µg/mL (≈ 1.57 µM)
[6]
  MIC: 2 µg/mL (≈ 3.14 µM)
[7]
  MIC: 0.5 µg/mL (≈ 0.784 µM)
[8]
  MIC: 1 µg/mL (≈ 1.57 µM)
[9]
  MIC: > 128 µg/mL
[10]
  MIC: 0.13 µg/mL (≈ 0.204 µM)
[11]
  MIC: 0.13 µg/mL (≈ 0.204 µM)
[12]
  MIC: 8 µg/mL (≈ 12.5 µM)
[13]
  MIC: 4 µg/mL (≈ 6.27 µM)
[14]
  MIC: 0.13 µg/mL (≈ 0.204 µM)
[15]
  MIC: 0.25 µg/mL (≈ 0.392 µM)
[16]
  MIC: 0.5 µg/mL (≈ 0.784 µM)
[17]
  MIC: 0.063 µg/mL (≈ 0.0988 µM)
[18]
  MIC: 2 µg/mL (≈ 3.14 µM)
[19]
  MIC: 2 µg/mL (≈ 3.14 µM)
[20]
  MIC: ≤ 0.008 µg/mL
[21]
  MIC: 0.25 µg/mL (≈ 0.392 µM)
[22]
  MIC: 0.25 µg/mL (≈ 0.392 µM)
[23]
  MIC: 128 µg/mL (≈ 201 µM)
[24]
  MIC: 0.063 µg/mL (≈ 0.0988 µM)
[25]
  MIC: ≤ 0.008 µg/mL

## CCO/N=C(\C(=O)N[C@@H]1C(=O)N2C(C(=O)[O-])=C(CSc3cc(N)nc(N)[n+]3CC)CS[C@H]12)c1nsc(N)n1 [Compound I-6, (6R,7R)-7-[(Z)-2-(5-amino-1,2,4-thiadiazol-3-yl)-2-(ethoxyimino)acetamido]-3-(2,6-diamino-3-ethylpyrimidinium-4-yl)thiomethyl-3-cephem-4-carboxylate]
[1]
  MIC: 1 µg/mL (≈ 1.72 µM)
[2]
  MIC: 0.5 µg/mL (≈ 0.861 µM)
[3]
  MIC: 0.063 µg/mL (≈ 0.108 µM)
[4]
  MIC: 0.016 µg/mL (≈ 0.0276 µM)
[5]
  MIC: 16 µg/mL (≈ 27.6 µM)
[6]
  MIC: 16 µg/mL (≈ 27.6 µM)
[7]
  MIC: 0.063 µg/mL (≈ 0.108 µM)
[8]
  MIC: 2 µg/mL (≈ 3.44 µM)
[9]
  MIC: > 128 µg/mL
[10]
  MIC: 0.13 µg/mL (≈ 0.224 µM)
[11]
  MIC: 0.13 µg/mL (≈ 0.224 µM)
[12]
  MIC: 8 µg/mL (≈ 13.8 µM)
[13]
  MIC: 1 µg/mL (≈ 1.72 µM)
[14]
  MIC: 0.13 µg/mL (≈ 0.224 µM)
[15]
  MIC: 0.031 µg/mL (≈ 0.0534 µM)
[16]
  MIC: 0.25 µg/mL (≈ 0.431 µM)
[17]
  MIC: 0.063 µg/mL (≈ 0.108 µM)
[18]
  MIC: 0.5 µg/mL (≈ 0.861 µM)
[19]
  MIC: 0.5 µg/mL (≈ 0.861 µM)
[20]
  MIC: ≤ 0.008 µg/mL
[21]
  MIC: 0.13 µg/mL (≈ 0.224 µM)
[22]
  MIC: 0.25 µg/mL (≈ 0.431 µM)
[23]
  MIC: 64 µg/mL (≈ 110 µM)
[24]
  MIC: 0.031 µg/mL (≈ 0.0534 µM)
[25]
  MIC: ≤ 0.008 µg/mL

## CO/N=C(\C(=O)N[C@@H]1C(=O)N2C(C(=O)[O-])=C(CSc3cc(N)[n+](C)c(N)n3)CS[C@H]12)c1csc(N)n1 [Compound I-21, (6R,7R)-7-[(Z)-2-(2-aminothiazol-4-yl)-2-(methoxyimino)acetamido]-3-(2,6-diamino-1-methylpyrimidinium-4-yl)thiomethyl-3-cephem-4-carboxylate]
[1]
  MIC: 0.5 µg/mL (≈ 0.906 µM)
[2]
  MIC: 0.13 µg/mL (≈ 0.236 µM)
[3]
  MIC: ≤ 0.008 µg/mL
[4]
  MIC: 0.5 µg/mL (≈ 0.906 µM)
[5]
  MIC: 2 µg/mL (≈ 3.63 µM)
[6]
  MIC: 16 µg/mL (≈ 29 µM)
[7]
  MIC: 0.063 µg/mL (≈ 0.114 µM)
[8]
  MIC: 1 µg/mL (≈ 1.81 µM)
[9]
  MIC: 32 µg/mL (≈ 58 µM)
[10]
  MIC: 0.063 µg/mL (≈ 0.114 µM)
[11]
  MIC: 0.063 µg/mL (≈ 0.114 µM)
[12]
  MIC: 8 µg/mL (≈ 14.5 µM)
[13]
  MIC: 0.5 µg/mL (≈ 0.906 µM)
[14]
  MIC: 0.031 µg/mL (≈ 0.0562 µM)
[15]
  MIC: 0.5 µg/mL (≈ 0.906 µM)
[16]
  MIC: 0.25 µg/mL (≈ 0.453 µM)
[17]
  MIC: 0.016 µg/mL (≈ 0.029 µM)
[18]
  MIC: 0.25 µg/mL (≈ 0.453 µM)
[19]
  MIC: 0.25 µg/mL (≈ 0.453 µM)
[20]
  MIC: ≤ 0.008 µg/mL
[21]
  MIC: 0.13 µg/mL (≈ 0.236 µM)
[22]
  MIC: 0.13 µg/mL (≈ 0.236 µM)
[23]
  MIC: 128 µg/mL (≈ 232 µM)
[24]
  MIC: ≤ 0.008 µg/mL
[25]
  MIC: ≤ 0.008 µg/mL

## CC[n+]1c(N)cc(SCC2=C(C(=O)[O-])N3C(=O)[C@@H](NC(=O)/C(=N\OC)c4csc(N)n4)[C@H]3SC2)nc1N [Compound I-22, (6R,7)-7-[(Z)-2-(2-aminothiazol-4-yl)-2-(methoxyimino)acetamido]-3-(2,6-diamino-1-ethylpyrimidinium-4-yl)thiomethyl-3-cephem-4-carboxylate]
[1]
  MIC: 0.25 µg/mL (≈ 0.442 µM)
[2]
  MIC: 0.13 µg/mL (≈ 0.23 µM)
[3]
  MIC: ≤ 0.008 µg/mL
[4]
  MIC: 0.25 µg/mL (≈ 0.442 µM)
[5]
  MIC: 2 µg/mL (≈ 3.54 µM)
[6]
  MIC: 8 µg/mL (≈ 14.1 µM)
[7]
  MIC: 0.031 µg/mL (≈ 0.0548 µM)
[8]
  MIC: 1 µg/mL (≈ 1.77 µM)
[9]
  MIC: 8 µg/mL (≈ 14.1 µM)
[10]
  MIC: 0.063 µg/mL (≈ 0.111 µM)
[11]
  MIC: 0.063 µg/mL (≈ 0.111 µM)
[12]
  MIC: 8 µg/mL (≈ 14.1 µM)
[13]
  MIC: 0.5 µg/mL (≈ 0.884 µM)
[14]
  MIC: 0.25 µg/mL (≈ 0.442 µM)
[15]
  MIC: 0.25 µg/mL (≈ 0.442 µM)
[16]
  MIC: 0.25 µg/mL (≈ 0.442 µM)
[17]
  MIC: 0.063 µg/mL (≈ 0.111 µM)
[18]
  MIC: 0.25 µg/mL (≈ 0.442 µM)
[19]
  MIC: 0.25 µg/mL (≈ 0.442 µM)
[20]
  MIC: ≤ 0.008 µg/mL
[21]
  MIC: 0.25 µg/mL (≈ 0.442 µM)
[22]
  MIC: 0.031 µg/mL (≈ 0.0548 µM)
[23]
  MIC: 64 µg/mL (≈ 113 µM)
[24]
  MIC: ≤ 0.008 µg/mL
[25]
  MIC: ≤ 0.008 µg/mL
